Measured values reported in ChEMBL document CHEMBL1133646 (J Med Chem, 2000).

Assays:
Assay type in all cases: functional
Mus musculus [1] = assay: Mean day to death of mice at 0 mg/kg/day
Mus musculus [2] = assay: Mean day to death of mice at 0.1 mg/kg/day
Mus musculus [3] = assay: Survival rate of mice infected with A/Turkey/Mass/76 XA/Beijing/32/92 (H6N2) virus at a dose of 0.1 mg/kg/day; 7/9 (7 survived out of 9 mice)
Mus musculus [4] = assay: Survival rate of mice infected with A/Turkey/Mass/76 XA/Beijing/32/92 (H6N2) virus at a dose of 1.0 mg/kg/day; 9/9 (9 survived out of 9 mice)
Mus musculus [5] = assay: Survival rate of mice infected with A/Turkey/Mass/76 XA/Beijing/32/92 (H6N2) virus at a dose of 0 mg/kg/day; 1/9 (1 survived out of 9 mice)

CCC(CC)[C@H](NC(C)=O)[C@@H]1[C@H](O)[C@@H](C(=O)O)C[C@H]1NC(=N)N [PERAMIVIR ANHYDROUS]
Mean day (Mus musculus [1]): 8.8 | Mean day (Mus musculus [2]): 9 | Survival (Mus musculus [3]): <7 | Survival (Mus musculus [4]): <9 | Survival (Mus musculus [5]): 1
